# Laboratory results: patent EP4596574A1, “GLP-1/GCG/GIP TRIPLE-RECEPTOR AGONIST AND USE THEREOF” (Sunshine Lake Pharma Co., Ltd., priority 2022, dated 2024)
# pEC50: −log10 of the molar value.
# Experiments:
# Assay type in all cases: cell-based
# GCGR = molecular target: T1, GCGR (Homo sapiens, UniProt P47871); assay: In vitro cell activity, cAMP production in HEK293 cells expressing GCGR; conditions: HEK293-GCGR cells, cAMP; read-out: GCGR (EC50)
# T1 construct: expressed in transfected cells; host or cells: HEK293 (HEK293-GCGR)
# Outline: (§1)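 Assay format: cells at 4×10^5 cells/mL, cAMP sensed by d2/cryptate FRET pair, dual-wavelength read at 665 and 620 nm. Potency expressed as EC50 from nonlinear fitting.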
# GLP-1R = molecular target: T2, GLP-1R (Homo sapiens, UniProt P43220); assay: In vitro cell activity, cAMP production in HEK293 cells expressing GLP-1R; conditions: HEK293-GLP-1R cells, cAMP; read-out: GLP-1R (EC50)
# T2 construct: expressed in transfected cells; host or cells: HEK293 (HEK293-GLP-1R)
# Outline: as §1
# GIPR = molecular target: T3, GIPR (Homo sapiens, UniProt P48546); assay: In vitro cell activity, cAMP production in HEK293 cells expressing GIPR; conditions: HEK293-GIPR cells, cAMP; read-out: GIPR (EC50)
# T3 construct: expressed in transfected cells; host or cells: HEK293 (HEK293-GIPR)
# T3 sequence (P48546 22-466): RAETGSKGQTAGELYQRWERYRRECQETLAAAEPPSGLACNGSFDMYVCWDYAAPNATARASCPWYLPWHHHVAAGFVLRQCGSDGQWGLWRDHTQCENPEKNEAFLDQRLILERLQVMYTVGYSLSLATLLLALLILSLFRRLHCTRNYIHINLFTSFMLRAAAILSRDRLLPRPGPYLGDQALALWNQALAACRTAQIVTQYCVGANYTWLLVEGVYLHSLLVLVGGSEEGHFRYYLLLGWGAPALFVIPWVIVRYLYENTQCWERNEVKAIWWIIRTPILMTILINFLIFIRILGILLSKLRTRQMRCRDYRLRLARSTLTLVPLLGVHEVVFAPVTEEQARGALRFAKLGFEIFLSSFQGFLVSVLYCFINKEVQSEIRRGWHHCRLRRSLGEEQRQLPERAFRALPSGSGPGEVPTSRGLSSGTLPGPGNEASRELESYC
# Outline: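 cAMP accumulation is quantified by homogeneous TR-FRET (cAMP-d2 plus anti-cAMP cryptate) in GIPR-expressing HEK293 cells seeded from a 4×10^5 cells/mL suspension and treated with compound. The signal ratio is plotted against concentration and fitted to a four-parameter curve to give EC50.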
# T2 sequence (P43220 24-463, species assumed): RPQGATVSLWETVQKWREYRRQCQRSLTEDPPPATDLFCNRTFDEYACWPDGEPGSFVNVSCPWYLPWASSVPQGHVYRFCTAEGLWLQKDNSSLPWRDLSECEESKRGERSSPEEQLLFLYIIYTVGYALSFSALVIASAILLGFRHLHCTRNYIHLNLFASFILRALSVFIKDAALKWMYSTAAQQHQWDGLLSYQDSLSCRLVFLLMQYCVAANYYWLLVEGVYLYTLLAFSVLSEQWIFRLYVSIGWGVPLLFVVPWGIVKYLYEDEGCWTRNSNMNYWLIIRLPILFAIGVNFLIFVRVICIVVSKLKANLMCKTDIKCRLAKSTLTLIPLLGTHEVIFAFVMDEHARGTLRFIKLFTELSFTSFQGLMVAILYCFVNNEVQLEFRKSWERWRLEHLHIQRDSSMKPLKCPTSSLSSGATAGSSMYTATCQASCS
# T1 sequence (P47871 26-477, species assumed): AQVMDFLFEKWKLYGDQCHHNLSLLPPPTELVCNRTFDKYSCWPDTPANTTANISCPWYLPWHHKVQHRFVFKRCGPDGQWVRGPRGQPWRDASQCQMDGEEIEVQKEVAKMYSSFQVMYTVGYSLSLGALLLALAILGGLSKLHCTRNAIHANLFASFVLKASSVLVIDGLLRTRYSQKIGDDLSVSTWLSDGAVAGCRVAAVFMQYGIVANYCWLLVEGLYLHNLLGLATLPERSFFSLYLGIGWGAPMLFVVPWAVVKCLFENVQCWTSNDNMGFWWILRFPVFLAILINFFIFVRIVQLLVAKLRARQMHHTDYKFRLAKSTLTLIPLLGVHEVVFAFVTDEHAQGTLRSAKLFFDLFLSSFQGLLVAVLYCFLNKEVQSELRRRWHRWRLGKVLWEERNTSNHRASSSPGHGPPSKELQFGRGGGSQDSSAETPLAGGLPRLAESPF
smiles,measurement,setting,value
CC[C@H](C)[C@H](NC(=O)[C@H](CO)NC(=O)[C@H](Cc1ccc(O)cc1)NC(=O)[C@H](CC(=O)O)NC(=O)[C@H](CO)NC(=O)[C@@H](NC(=O)[C@](C)(Cc1ccccc1F)NC(=O)[C@@H](NC(=O)CNC(=O)[C@H](CCC(N)=O)NC(=O)C(C)(C)NC(=O)[C@@H](N)Cc1ccc(O)cc1)[C@@H](C)O)[C@@H](C)O)C(=O)N[C@@H](CC(C)C)C(=O)N[C@@H](CC(C)C)C(=O)N[C@@H](CC(=O)O)C(=O)N[C@@H](CCC(=O)O)C(=O)N[C@@H](CCCCNC(=O)COCCOCCNC(=O)CC[C@H](NC(=O)CCCCCCCCCCCCCCCCC(=O)O)C(=O)O)C(=O)N[C@@H](CCCNC(=N)N)C(=O)N[C@@H](CCC(N)=O)C(=O)N[C@@H](CCCNC(=N)N)C(=O)N[C@@H](C)C(=O)N[C@@H](Cc1ccccc1)C(=O)N[C@H](C(=O)N[C@@H](CCC(=O)O)C(=O)N[C@@H](Cc1ccc(O)cc1)C(=O)N[C@@H](CC(C)C)C(=O)N[C@@H](CC(C)C)C(=O)N[C@@H](C)C(=O)NCC(=O)NCC(=O)N1CCC[C@H]1C(=O)N[C@@H](CO)C(=O)N[C@@H](CO)C(=O)NCC(=O)N[C@@H](C)C(=O)N1CCC[C@H]1C(=O)N1CCC[C@H]1C(=O)N1CCC[C@H]1C(=O)N[C@@H](CO)C(=O)O)C(C)C [HEC-PT135],pEC50,GCGR,9.04
same,pEC50,GLP-1R,9.72
same,pEC50,GIPR,9.55
